Laboratory results taken from patent US20220008397A1, “PHARMACEUTICAL COMPOSITION FOR THE TREATMENT OF OCULAR NEOVASCULARISATION” (NOVALIQ GMBH, priority 2019, published 2022).

How the values were obtained:
choroidal angiogenesis = assay: In vitro model of choroidal angiogenesis; format: cell-based; settings: 20 ng/mL and 4 ng/mL
Method: The antiangiogenic effect of Tacrolimus was also tested in an in vitro model of choroidal angiogenesis and compared with dexamethasone.

[1] = test system: BMDMs (bone marrow derived macrophages); assay: In vitro study using BMDMs (culture of bone marrow derived macrophages), expression of angiogenic growth factors; format: cell-based
[2] = Tamura et al., 2002; cited from earlier work

C=CC[C@@H]1/C=C(\C)C[C@H](C)C[C@H](OC)[C@H]2O[C@@](O)(C(=O)C(=O)N3CCCC[C@H]3C(=O)O[C@H](/C(C)=C/[C@@H]3CC[C@@H](O)[C@H](OC)C3)[C@H](C)[C@@H](O)CC1=O)[C@H](C)C[C@@H]2OC [Tacrolimus]
Dose dependence of the suppression of choroidal angiogenesis in vitro (choroidal angiogenesis; 100 ng/mL): not dose-dependent
Effect on choroidal angiogenesis in vitro (choroidal angiogenesis; tacrolimus at 100 ng/mL): suppressed choroidal angiogenesis
Expression of pro-angiogenic growth factors [1]: can reduce the expression of pro-angiogenic growth factors
Ability to penetrate tissue barrier upon topical administration [2]: poor ability to penetrate tissue barrier
